Measurements published in patent US20230263822A1, “MODULATION OF FACTOR 11 EXPRESSION” (Ionis Pharmaceuticals, Inc., priority 2008, published 2023).
Where two headings read alike, the source gives them in different places. e = 2'-O-(2-methoxyethyl) (MOE); d = 2'-deoxy (DNA)

Assays:
[1] = mouse, in vivo, sc, 50 mg/kg
[2] = rat, in vivo, sc, 50 mg/kg
[3] = mouse, in vivo, sc, 50 mg/kg; remark: listed apart in the source
[4] = rat, in vivo, sc, 50 mg/kg; remark: listed apart in the source
[5] = mouse, in vivo, sc, 50 mg/kg; remark: listed apart in the source
[6] = rat, in vivo, sc, 50 mg/kg; remark: listed apart in the source

Substance | ALT [1] [IU/L] | AST [1] [IU/L] | Albumin [1] | Bilirubin [1] [mg/dL] | BUN [2] [mg/dL] | Creatinine [2] [mg/dL] | Urine protein/creatinine ratio [2] | HCT [3] [%] | Lymphocyte [3] | Neutrophil [3] | Platelets [3] | RBC [3] | WBC [3] | hemoglobin [3] [g/dL] | HCT [4] [%] | Lymphocyte [4] [%] | Neutrophil [4] [%] | Platelets [4] [nL⁻¹] | RBC [4] [pL⁻¹] | BUN [5] [mg/dL] | other results
ISIS 445530: 5-8-5 or 6-8-6 MOE microwalk gapmer (Table 44) (antisense GCATTGGTGCACAGTTTC; sugars from the 5' end e5 d8 e5, backbone and methylation of C not given here) | 104 | 136 | 3.2 | 0.18 | 22 | 0.4 | 4.2 | 50 | 5488 | 930 | 849 | 10.0 | 7 | 15.1 | 50 | 87 | 11 | 1249 | 8.9 | 26 | WBC [4]: 12 nL⁻¹; hemoglobin [4]: 14.7 g/dL; monocytes [4]: 2.0%; ALT [6]: 116 IU/L; AST [6]: 56 IU/L; Albumin [6]: 3.7; Bilirubin [6]: 0.11 mg/dL
ISIS 445505: 5-8-5 or 6-8-6 MOE microwalk gapmer (Table 44) (antisense CGGCATTGGTGCACAGTTTC; sugars from the 5' end e6 d8 e6, backbone and methylation of C not given here) | 116 | 153 | 3.2 | 0.18 | 24 | 0.4 | 3.8 | 49 | 3447 | 818 | 725 | 9.6 | 5 | 14.6 | 50 | 87 | 10 | 1089 | 9.1 | 29 | WBC [4]: 21 nL⁻¹; hemoglobin [4]: 15.0 g/dL; monocytes [4]: 2.5%; ALT [6]: 356 IU/L; AST [6]: 243 IU/L; Albumin [6]: 3.6; Bilirubin [6]: 0.15 mg/dL
ISIS 445513: 5-8-5 or 6-8-6 MOE microwalk gapmer (Table 44) (antisense GCAGCGGACGGCATTGGTGC; sugars from the 5' end e6 d8 e6, backbone and methylation of C not given here) | 37 | 84 | 3.1 | 0.22 | 24 | 0.4 | 4.6 | – | 5523 | 959 | 942 | – | – | – | 44 | 82 | 14 | 1051 | 7.8 | 27 | WBC [4]: 17 nL⁻¹; hemoglobin [4]: 13.0 g/dL; monocytes [4]: 3.5%; ALT [6]: 214 IU/L; AST [6]: 91 IU/L; Albumin [6]: 3.5; Bilirubin [6]: 0.15 mg/dL
ISIS 445509: 5-8-5 or 6-8-6 MOE microwalk gapmer (Table 44) (antisense CGGACGGCATTGGTGCACAG; sugars from the 5' end e6 d8 e6, backbone and methylation of C not given here) | 80 | 117 | 3.1 | 0.17 | 27 | 0.5 | 4.0 | 51 | 3758 | 1104 | 1085 | 10.2 | 5 | 15.3 | 47 | 84 | 11 | 1115 | 8.4 | 29 | WBC [4]: 17 nL⁻¹; hemoglobin [4]: 14.1 g/dL; monocytes [4]: 3.8%; ALT [6]: 676 IU/L; AST [6]: 291 IU/L; Albumin [6]: 3.5; Bilirubin [6]: 0.14 mg/dL
ISIS 445504: 5-8-5 or 6-8-6 MOE microwalk gapmer (Table 44) (antisense GGCATTGGTGCACAGTTTCT; sugars from the 5' end e6 d8 e6, backbone and methylation of C not given here) | 71 | 107 | 3.4 | 0.17 | 26 | 0.4 | 4.3 | 49 | 3578 | 959 | 826 | 9.6 | 5 | 14.7 | 50 | 87 | 10 | 776 | 8.9 | 29 | WBC [4]: 16 nL⁻¹; hemoglobin [4]: 14.7 g/dL; monocytes [4]: 2.0%; ALT [6]: 206 IU/L; AST [6]: 86 IU/L; Albumin [6]: 3.5; Bilirubin [6]: 0.11 mg/dL
ISIS 445503: 5-8-5 or 6-8-6 MOE microwalk gapmer (Table 44) (antisense GCATTGGTGCACAGTTTCTG; sugars from the 5' end e6 d8 e6, backbone and methylation of C not given here) | 1314 | 852 | 3.4 | 0.28 | – | – | – | 46 | 6436 | 1475 | 309 | 9.2 | 8 | 13.6 | – | – | – | – | – | 29 | –
ISIS 445498: 5-8-5 or 6-8-6 MOE microwalk gapmer (Table 44) (antisense GGTGCACAGTTTCTGGCAGG; sugars from the 5' end e6 d8 e6, backbone and methylation of C not given here) | 66 | 102 | 3.4 | 0.24 | 25 | 0.5 | 3.1 | 47 | 3241 | 1197 | 802 | 9.4 | 5 | 13.9 | 49 | 89 | 9 | 1061 | 8.5 | 28 | WBC [4]: 13 nL⁻¹; hemoglobin [4]: 14.7 g/dL; monocytes [4]: 2.0%; ALT [6]: 417 IU/L; AST [6]: 124 IU/L; Albumin [6]: 3.7; Bilirubin [6]: 0.14 mg/dL
